According to US20240181080A1, “METHOD FOR CONTROLLING HETEROGENEITY OF VASCULAR ENDOTHELIAL CELLS BY UTILIZING SYMPATHETIC NERVES” (priority 2021, published 2024):
Counter-ions that a name gives are not always drawn.

Assays:
[1] = tested on: H-subtype bone vascular endothelial cells; test: Example 1: fluorescence microscopy (CD31, EMCN) of bone vascular endothelial cells at the femoral epiphyseal end, after intraosseous hM3Dq virus and CNO injection; type: in vivo, TH-Cre transgenic mouse; conditions: hM3Dq side vs mCherry control side; CNO 1 mg/kg every 48 h for 4 weeks
Procedure: A TH-Cre transgenic mouse aged 4 weeks was selected and anesthetized, and then the skin and muscle on the femur of the mouse were carefully parted. A hole was made in the femur using a small needle to reach the marrow cavity. Using a microsyringe, 1 μL of pAAV-hSyn-DIO-hM3D(Gq)-mCherry with a viral titer of about […] was slowly injected into the long bone marrow cavity of the TH-Cre mouse on one side of the femur in the lower limb through the small hole, serving as an experimental group (recorded as hM3Dq); on the other side, pAAV-hSyn-DIO-mCherry was injected, serving as a control group (recorded as mCherry). […]
After recovery of the mouse and 6 weeks of expression of the gene carried by the virus, CNO was injected (at a dose to achieve a concentration of 1 mg/kg in the mouse) every 48 h for 4 consecutive weeks. […] Data were expressed as (Means±S.E.M.); P<0.05 was considered a significant difference.
CD31 is marked with green fluorescence, and EMCN is marked with red fluorescence; both are markers for H-subtype bone vascular endothelium. The stronger the fluorescence intensity, the more complete the vascular morphology, indicating greater expression of CD31 and EMCN, i.e., the higher number of the H-subtype bone vascular endothelial cells. […]

[2] = Example 1: microCT of the trabecular bone at the femoral epiphyseal end, after intraosseous hM3Dq virus and CNO injection; type: in vivo, TH-Cre transgenic mouse; conditions: CNO 1 mg/kg every 48 h for 4 weeks
[3] = tested on: H-subtype bone vascular endothelial cells; test: Example 2: fluorescence microscopy (CD31, EMCN) of bone vascular endothelial cells at the femoral epiphyseal end, after intraosseous hM4Di virus and CNO injection; type: in vivo, TH-Cre transgenic mouse; conditions: hM4Di side vs mCherry control side; CNO 1 mg/kg every 48 h for 4 weeks
[4] = Example 2: microCT of the trabecular bone at the femoral epiphyseal end, after intraosseous hM4Di virus and CNO injection; type: in vivo, TH-Cre transgenic mouse; conditions: CNO 1 mg/kg every 48 h for 4 weeks
hM4Di = biological target: T1, hM4Di (Homo sapiens, UniProt P08173, A203G/Y113C); conditions: comparator not stated; patent notes structural similarity to clozapine; cited from earlier work
T1 sequence (P08173 1-479 Y113C/A203G): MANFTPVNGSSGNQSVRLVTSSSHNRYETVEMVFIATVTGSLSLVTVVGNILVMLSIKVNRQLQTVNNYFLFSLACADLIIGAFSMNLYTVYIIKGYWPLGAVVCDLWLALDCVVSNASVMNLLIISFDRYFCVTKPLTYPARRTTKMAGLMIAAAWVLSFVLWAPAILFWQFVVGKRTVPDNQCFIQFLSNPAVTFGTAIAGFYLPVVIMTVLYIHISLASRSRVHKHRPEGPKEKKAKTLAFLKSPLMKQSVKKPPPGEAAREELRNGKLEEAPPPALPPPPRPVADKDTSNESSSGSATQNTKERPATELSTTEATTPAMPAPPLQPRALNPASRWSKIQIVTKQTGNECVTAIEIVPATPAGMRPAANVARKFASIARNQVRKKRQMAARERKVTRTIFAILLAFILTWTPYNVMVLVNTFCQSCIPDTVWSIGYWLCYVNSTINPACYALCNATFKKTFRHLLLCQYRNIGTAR

hM3Dq = hM3Dq (Homo sapiens, UniProt P20309, A239G/Y149C); conditions: comparator not stated; patent notes structural similarity to clozapine; cited from earlier work
[5] = tested on: L-subtype vascular endothelium; conditions: aged C57BL/6J male mice; prior art; cited from earlier work

Sequence of hM3Dq (P20309 whole entry Y149C/A239G): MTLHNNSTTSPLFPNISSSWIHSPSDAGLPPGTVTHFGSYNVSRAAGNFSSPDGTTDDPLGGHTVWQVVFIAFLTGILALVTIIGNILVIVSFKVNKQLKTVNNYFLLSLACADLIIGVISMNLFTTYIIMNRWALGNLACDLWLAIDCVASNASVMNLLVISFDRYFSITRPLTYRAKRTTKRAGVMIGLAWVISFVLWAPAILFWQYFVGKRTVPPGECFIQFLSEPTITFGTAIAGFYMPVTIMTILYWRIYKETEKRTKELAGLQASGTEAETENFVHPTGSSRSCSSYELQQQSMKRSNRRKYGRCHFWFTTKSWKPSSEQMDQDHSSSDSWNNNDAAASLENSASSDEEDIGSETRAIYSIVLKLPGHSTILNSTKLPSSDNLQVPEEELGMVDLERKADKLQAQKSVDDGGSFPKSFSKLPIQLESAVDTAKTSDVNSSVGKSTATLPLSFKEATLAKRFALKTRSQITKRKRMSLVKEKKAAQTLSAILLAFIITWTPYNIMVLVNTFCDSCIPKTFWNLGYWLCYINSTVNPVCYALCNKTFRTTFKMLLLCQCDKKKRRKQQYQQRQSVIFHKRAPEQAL

C[N+]1([O-])CCN(C2=Nc3cc(Cl)ccc3Nc3ccccc32)CC1 [CNO, Clozapine N-oxide]
number of the H-subtype bone vascular endothelial cells near the long bone growth plate [1]: increased
sympathetic nerve activity [1]: activated
bone mass of the trabecular bone [2]: rise
number of the H-subtype bone vascular endothelial cells [3]: reduced
sympathetic nerve activity [3]: inhibited
bone mass of the trabecular bone [4]: decrease

CN1CCN(C2=Nc3ccccc3Nc3ccccc32)CC1 [Deschloroclozapine]
affinity for hM4Di (hM4Di): higher
affinity for hM3Dq (hM3Dq): higher

CC(=O)N(O)CCCCCNC(=O)CCC(=O)N(O)CCCCCNC(=O)CCC(=O)N(O)CCCCCN [deferoxamine mesylate]
bone mineral density [5]: increasing
reverse transformation of L-subtype vascular endothelium into H-subtype vascular endothelium [5]: promotes
